Experimental data: patent US9884816B2, “Sulforaphane-derived compounds, production method thereof and the medical, food and cosmetic use of same” (Consejo Superior De Investigaciones Científicas (CSIC), priority 2012, dated 2018)

Key:
[1] = tested on: MRC-5 (fetal lung fibroblasts); experiment: Cytotoxicity curve, MRC-5 cell line; format: cell-based; settings: mean ± SEM, at least 3 independent experiments
Procedure: (§1) FIG. 5. Curve of cytotoxicity of the compounds 15S, and 15R, at four different concentrations ([…]) in comparison with Sigma-Aldrich® sulphoraphane at five different concentrations ([…]) for the cell lines A-549 (human lung adenocarcinoma) and MRC-5 (fetal lung fibroblasts), showing IC50 for all the products in each of the cell lines used in the test, expressed as mean±standard error (SEM) of all the tests conducted. Each diagram represents at least 3 independent experiments and both within them and for each value of IC50, the result of statistical analysis is indicated for the t-test with the p-value. The t-test indicates whether two values have a significant difference from the statistical standpoint. A p-value above 0.05 is not regarded as statistically significant and is not represented by any symbol, a p-value below 0.05 indicates statistical significance and is indicated with an asterisk (*), and then if p is below 0.01 it is indicated with two asterisks, and with three if it is below 0.001.

[2] = tested on: A-549 (human lung adenocarcinoma); experiment: Cytotoxicity curve, A-549 cell line; format: cell-based; settings: mean ± SEM, at least 3 independent experiments
Procedure: as §1

Row | Molecule | IC50 [1] [µM] | IC50 [2] [µM]
1 | C[S@@+]([O-])CCCCN=C=S (racemic) [SF, (Rs)-1-isothiocyanato-4-(methylsulphinyl)-butane] | 46.6 ± 2.19 | 19.6 ± 2.27
2 | C[S@+]([O-])CCOCCOCCN=C=S [SF 15Ss, (S)-(+)-8-Isothiocyanato-3,6-dioxaoctanylmethyl sulphoxide] | 58.3 ± 6.54 | 22.7 ± 0.69
3 | C[S+]([O-])CCCCN=C=S (centres unmarked) [SF Sigma ®] | 30.5 ± 2.02 | 16.5 ± 3.05
4 | (R)-(−)-8-Isocyanato-3,6-dioxaoctanylmethyl sulphoxide [SF 15Rs] | 67.3 ± 6.25 | 29.4 ± 3.89
